Assay results: patent US9302991B2, “Arylamide derivatives as TTX-S blockers” (RaQualia Pharma Inc., priority 2010, dated 2016)

Assays:
human Nav1.3 channels = target: T1, human Nav1.3 channels (Homo sapiens, UniProt Q9NY46); assay: FRET assay, human Nav1.3 (EFS on FDSS); type: cell-based; conditions: HEK293 cells expressing human Nav1.3, read-out: IC50 against Nav1.3
T1 construct: expressed in transfected cells; host or cells: HEK293
Summary of the method: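 HEK293 cells expressing the channel, loaded with 10 microM CC2-DMPE then 15 microM DiSBAC2(3) plus 0.555 mM VABSC-1 in pH 7.4 HEPES buffer at room temperature. Membrane potential changes evoked by electrical field stimulation after compound addition; IC50 from 440 nm-normalized FRET ratios.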

human Nav1.7 channels = target: T2, human Nav1.7 channels (Homo sapiens, UniProt Q15858); assay: FRET assay, human Nav1.7 (EFS on FDSS); type: cell-based; conditions: CHO cells expressing human Nav1.7, read-out: IC50 against Nav1.7
T2 construct: expressed in transfected cells; host or cells: CHO
T2 sequence (Q15858 whole entry): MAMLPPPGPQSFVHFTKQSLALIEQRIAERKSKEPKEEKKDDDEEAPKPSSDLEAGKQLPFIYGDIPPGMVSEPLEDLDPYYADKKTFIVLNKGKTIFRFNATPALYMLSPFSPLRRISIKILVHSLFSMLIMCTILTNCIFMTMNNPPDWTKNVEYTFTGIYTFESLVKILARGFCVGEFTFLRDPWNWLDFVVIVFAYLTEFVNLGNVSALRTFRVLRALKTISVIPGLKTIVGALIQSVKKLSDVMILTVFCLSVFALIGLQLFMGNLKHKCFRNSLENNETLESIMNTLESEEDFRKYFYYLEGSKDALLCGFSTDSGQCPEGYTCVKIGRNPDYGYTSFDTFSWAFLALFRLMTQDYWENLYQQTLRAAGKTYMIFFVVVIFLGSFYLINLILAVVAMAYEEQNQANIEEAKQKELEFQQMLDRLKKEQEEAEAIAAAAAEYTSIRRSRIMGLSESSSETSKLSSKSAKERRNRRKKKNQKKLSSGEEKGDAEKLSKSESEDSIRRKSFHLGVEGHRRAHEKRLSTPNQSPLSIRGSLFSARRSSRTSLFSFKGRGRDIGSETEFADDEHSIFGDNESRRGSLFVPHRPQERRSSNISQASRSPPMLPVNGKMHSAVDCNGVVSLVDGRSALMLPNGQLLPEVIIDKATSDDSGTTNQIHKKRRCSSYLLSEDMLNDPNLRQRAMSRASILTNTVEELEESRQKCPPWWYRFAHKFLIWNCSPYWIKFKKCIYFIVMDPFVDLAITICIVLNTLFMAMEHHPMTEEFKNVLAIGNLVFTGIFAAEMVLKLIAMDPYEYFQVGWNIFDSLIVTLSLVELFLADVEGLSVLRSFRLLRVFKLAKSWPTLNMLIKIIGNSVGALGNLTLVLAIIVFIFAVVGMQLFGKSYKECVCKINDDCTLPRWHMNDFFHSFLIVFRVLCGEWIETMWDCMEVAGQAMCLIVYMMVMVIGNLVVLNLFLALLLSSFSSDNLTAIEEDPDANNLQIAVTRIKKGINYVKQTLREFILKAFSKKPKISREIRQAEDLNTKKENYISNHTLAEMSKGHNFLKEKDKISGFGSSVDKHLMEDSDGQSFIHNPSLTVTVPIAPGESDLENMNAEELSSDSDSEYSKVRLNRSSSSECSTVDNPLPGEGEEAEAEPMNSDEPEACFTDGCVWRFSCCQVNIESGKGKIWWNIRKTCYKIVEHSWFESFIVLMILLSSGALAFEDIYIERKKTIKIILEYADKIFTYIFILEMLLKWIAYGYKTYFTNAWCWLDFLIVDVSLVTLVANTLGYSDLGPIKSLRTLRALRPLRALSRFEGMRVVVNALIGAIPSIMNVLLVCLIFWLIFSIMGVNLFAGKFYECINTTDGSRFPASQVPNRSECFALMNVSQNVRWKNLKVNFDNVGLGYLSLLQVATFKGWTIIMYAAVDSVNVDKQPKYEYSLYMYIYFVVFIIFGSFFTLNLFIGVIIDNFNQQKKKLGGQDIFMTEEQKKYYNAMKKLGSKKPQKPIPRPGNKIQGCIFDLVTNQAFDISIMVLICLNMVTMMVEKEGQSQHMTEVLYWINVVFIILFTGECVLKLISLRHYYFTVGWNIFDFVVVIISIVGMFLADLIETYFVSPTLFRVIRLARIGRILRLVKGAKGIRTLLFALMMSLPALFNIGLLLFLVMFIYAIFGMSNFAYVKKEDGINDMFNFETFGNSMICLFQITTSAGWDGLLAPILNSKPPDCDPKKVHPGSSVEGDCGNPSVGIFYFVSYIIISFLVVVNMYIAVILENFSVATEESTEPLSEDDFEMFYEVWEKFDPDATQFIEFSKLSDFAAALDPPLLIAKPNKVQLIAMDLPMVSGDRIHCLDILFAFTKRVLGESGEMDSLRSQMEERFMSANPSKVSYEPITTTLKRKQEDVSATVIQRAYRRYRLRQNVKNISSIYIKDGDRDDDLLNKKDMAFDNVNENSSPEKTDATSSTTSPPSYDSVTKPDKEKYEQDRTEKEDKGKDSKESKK
Summary of the method: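 CHO cells stably expressing the channel, loaded with CC2-DMPE (10 µM) then DiSBAC2(3) (15 µM) plus VABSC-1, in HEPES-buffered saline pH 7.4 at room temperature. Electrical field stimulation on FDSS; FRET ratio at 440 nm fitted for IC50.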

T1 sequence (Q9NY46 whole entry): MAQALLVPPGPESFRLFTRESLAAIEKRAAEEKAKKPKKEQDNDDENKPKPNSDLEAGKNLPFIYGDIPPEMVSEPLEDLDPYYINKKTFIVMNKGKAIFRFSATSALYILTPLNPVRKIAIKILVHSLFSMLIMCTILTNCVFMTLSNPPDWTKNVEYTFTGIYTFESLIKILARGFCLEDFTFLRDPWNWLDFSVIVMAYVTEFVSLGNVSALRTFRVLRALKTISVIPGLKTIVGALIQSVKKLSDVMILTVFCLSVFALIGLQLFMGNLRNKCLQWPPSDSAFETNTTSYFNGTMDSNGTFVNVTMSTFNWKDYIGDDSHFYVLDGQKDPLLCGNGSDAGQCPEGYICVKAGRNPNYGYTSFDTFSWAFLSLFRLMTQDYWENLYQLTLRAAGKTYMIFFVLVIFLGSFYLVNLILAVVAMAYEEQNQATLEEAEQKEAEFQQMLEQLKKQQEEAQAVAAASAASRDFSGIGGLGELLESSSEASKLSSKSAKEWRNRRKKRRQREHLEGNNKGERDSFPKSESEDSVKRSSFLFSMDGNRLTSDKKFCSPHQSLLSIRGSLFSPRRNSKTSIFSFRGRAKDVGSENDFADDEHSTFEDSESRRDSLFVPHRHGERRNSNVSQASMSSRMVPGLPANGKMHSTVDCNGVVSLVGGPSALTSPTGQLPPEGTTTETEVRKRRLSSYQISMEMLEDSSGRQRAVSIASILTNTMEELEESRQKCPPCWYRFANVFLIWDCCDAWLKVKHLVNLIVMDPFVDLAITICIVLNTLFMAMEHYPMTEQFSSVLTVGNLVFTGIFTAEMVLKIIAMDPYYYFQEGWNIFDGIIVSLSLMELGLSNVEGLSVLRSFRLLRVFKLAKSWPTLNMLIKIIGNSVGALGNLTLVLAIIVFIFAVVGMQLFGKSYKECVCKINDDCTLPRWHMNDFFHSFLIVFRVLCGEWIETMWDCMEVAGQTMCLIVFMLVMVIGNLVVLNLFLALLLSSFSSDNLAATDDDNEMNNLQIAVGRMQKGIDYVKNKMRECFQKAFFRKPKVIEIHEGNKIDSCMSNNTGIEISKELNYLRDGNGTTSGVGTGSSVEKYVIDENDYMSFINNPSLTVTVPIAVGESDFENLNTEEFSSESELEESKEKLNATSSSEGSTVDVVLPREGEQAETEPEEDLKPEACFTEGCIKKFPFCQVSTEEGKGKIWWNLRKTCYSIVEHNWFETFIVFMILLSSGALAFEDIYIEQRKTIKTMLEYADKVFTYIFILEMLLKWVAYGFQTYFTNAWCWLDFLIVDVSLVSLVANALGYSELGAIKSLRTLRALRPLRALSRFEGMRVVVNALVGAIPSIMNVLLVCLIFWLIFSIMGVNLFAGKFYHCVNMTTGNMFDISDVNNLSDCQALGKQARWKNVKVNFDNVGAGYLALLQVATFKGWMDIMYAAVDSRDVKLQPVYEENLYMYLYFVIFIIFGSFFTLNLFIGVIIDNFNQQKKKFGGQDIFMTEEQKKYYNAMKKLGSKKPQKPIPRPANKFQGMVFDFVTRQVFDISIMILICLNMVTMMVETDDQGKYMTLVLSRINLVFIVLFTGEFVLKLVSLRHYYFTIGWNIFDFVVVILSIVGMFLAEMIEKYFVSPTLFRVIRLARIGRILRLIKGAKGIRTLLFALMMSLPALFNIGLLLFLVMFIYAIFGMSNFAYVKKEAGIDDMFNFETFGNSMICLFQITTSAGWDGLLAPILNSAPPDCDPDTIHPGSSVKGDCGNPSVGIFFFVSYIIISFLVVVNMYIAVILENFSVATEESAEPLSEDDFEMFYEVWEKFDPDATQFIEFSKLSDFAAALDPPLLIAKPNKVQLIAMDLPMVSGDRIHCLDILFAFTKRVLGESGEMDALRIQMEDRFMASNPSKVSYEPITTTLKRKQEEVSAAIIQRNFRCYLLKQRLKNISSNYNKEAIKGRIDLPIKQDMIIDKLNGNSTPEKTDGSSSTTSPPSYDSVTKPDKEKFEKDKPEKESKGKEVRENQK

| IC50 (human Nav1.3 channels) [nM] | IC50 (human Nav1.7 channels) [nM] | Structure (SMILES) |
| --- | --- | --- |
| < 1000 | < 1000 | Cc1cc(C(C)NC(=O)c2ccnc(NC(=O)C3CC3)c2)cnc1OCC(F)(F)F (single isomer, unassigned) [Example 89, 2-(cyclopropanecarboxamido)-N-(1-(5-methyl-6-(2,2,2-trifluoroethoxy)pyridin-3-yl)ethyl)isonicotinamide] |
| < 1000 | < 1000 | CCC(=O)Nc1cc(C(=O)N[C@H](C)c2cccc(C(F)(F)F)c2)cc(C)n1 (single isomer, unassigned) [Example 126] |
| < 1000 | < 1000 | CCC(=O)Nc1cc(C(=O)NC(C)c2cnc(OCC(F)(F)F)c(Cl)c2)cc(C)n1 (single isomer, unassigned) [Example 130, N-(1-(5-chloro-6-(2,2,2-trifluoroethoxy)pyridin-3-yl)ethyl)-2-methyl-6-propionamidoisonicotinamide] |
| < 1000 | < 1000 | CCC(=O)Nc1cc(C(=O)NC(C)c2cnc(OCC(F)(F)F)c(C)c2)cc(C)n1 (single isomer, unassigned) [Example 132, 2-methyl-N-(1-(5-methyl-6-(2,2,2-trifluoroethoxy)pyridin-3-yl)ethyl)-6-propionamidoisonicotinamide] |
| < 1000 | < 1000 | CCC(=O)Nc1cc(C(=O)NC(C)c2cccc(OC(F)(F)F)c2)cc(C)n1 (single isomer, unassigned) [Example 134, 2-methyl-6-propionamido-N-(1-(3-(trifluoromethoxy)phenyl)ethyl)isonicotinamide] |
| < 1000 | < 1000 | CCC(=O)Nc1cc(C(=O)NC(C)c2ccc(OCC(F)(F)F)cc2)cc(C)n1 (single isomer, unassigned) [Example 136, 2-methyl-6-propionamido-N-(1-(4-(2,2,2-trifluoroethoxy)phenyl)ethyl)isonicotinamide] |
| < 1000 | < 1000 | CCC(=O)Nc1cc(C(=O)NC(C)c2cccc(OCC(F)(F)F)n2)cc(C)n1 (single isomer, unassigned) [Example 139, 2-methyl-6-propionamido-N-(1-(6-(2,2,2-trifluoroethoxy)pyridin-2-yl)ethyl)isonicotinamide] |
| < 1000 | < 1000 | CCC(=O)Nc1nccc(C(=O)NC(C)c2cnc(OCC(F)(F)F)c(C)c2)n1 (single isomer, unassigned) [Example 223, N-(1-(5-methyl-6-(2,2,2-trifluoroethoxy)pyridin-3-yl)ethyl)-2-propionamidopyrimidine-4-carboxamide] |
| < 1000 | < 1000 | Cc1cc(C(C)NC(=O)c2ccnc(NC(=O)C3CC3)n2)cnc1OCC(F)(F)F (single isomer, unassigned) [Example 224, 2-(cyclopropanecarboxamido)-N-(1-(5-methyl-6-(2,2,2-trifluoroethoxy)pyridin-3-yl)ethyl)pyrimidine-4-carboxamide] |
| < 1000 | < 1000 | Cc1cc(C(C)NC(=O)c2ccnc(NC(=O)C(C)C)n2)cnc1OCC(F)(F)F (single isomer, unassigned) [Example 225, 2-isobutyramido-N-(1-(5-methyl-6-(2,2,2-trifluoroethoxy)pyridin-3-yl)ethyl)pyrimidine-4-carboxamide] |
| < 1000 | < 1000 | Cc1cc(C(C)NC(=O)c2ccnc(NC(=O)C3CCC3)n2)cnc1OCC(F)(F)F (single isomer, unassigned) [Example 226, 2-(cyclobutanecarboxamido)-N-(1-(5-methyl-6-(2,2,2-trifluoroethoxy)pyridin-3-yl)ethyl)pyrimidine-4-carboxamide] |
| < 1000 | < 1000 | CCC(=O)Nc1nc(C)cc(C(=O)NC(C)c2cnc(OCC(F)(F)F)c(C)c2)n1 (single isomer, unassigned) [Example 227, 6-methyl-N-(1-(5-methyl-6-(2,2,2-trifluoroethoxy)pyridin-3-yl)ethyl)-2-propionamidopyrimidine-4-carboxamide] |
| < 1000 | < 1000 | Cc1cc(C(=O)NC(C)c2cnc(OCC(F)(F)F)c(C)c2)nc(NC(=O)C2CC2)n1 (single isomer, unassigned) [Example 228, 2-(cyclopropanecarboxamido)-6-methyl-N-(1-(5-methyl-6-(2,2,2-trifluoroethoxy)pyridin-3-yl)ethyl)pyrimidine-4-carboxamide] |
| < 1000 | < 1000 | Cc1cc(C(=O)NC(C)c2cnc(OCC(F)(F)F)c(C)c2)nc(NC(=O)C(C)C)n1 (single isomer, unassigned) [Example 229, 2-isobutyramido-6-methyl-N-(1-(5-methyl-6-(2,2,2-trifluoroethoxy)pyridin-3-yl)ethyl)pyrimidine-4-carboxamide] |
| < 1000 | < 1000 | CC(=O)Nc1nc(C)cc(C(=O)NC(C)c2cnc(OCC(F)(F)F)c(C)c2)n1 (single isomer, unassigned) [Example 235, 2-acetamido-6-methyl-N-(1-(5-methyl-6-(2,2,2-trifluoroethoxy)pyridin-3-yl)ethyl)pyrimidine-4-carboxamide] |
| < 1000 | < 1000 | Cc1cc(C(=O)NC(C)c2cnc(OCC(F)(F)F)c(C)c2)nc(Nc2ncco2)n1 (single isomer, unassigned) [Example 456, 6-methyl-N-(1-(5-methyl-6-(2,2,2-trifluoroethoxy)pyridin-3-yl)ethyl)-2-(oxazol-2-ylamino)pyrimidine-4-carboxamide] |
| < 1000 | < 1000 | Cc1cc(C(=O)NC(C)c2cccc(OC(F)(F)F)c2)cc(NC(=O)C(C)C)n1 (single isomer, unassigned) [Example 499, 2-isobutyramido-6-methyl-N-(1-(3-(trifluoromethoxy)phenyl)ethyl)isonicotinamide] |
| < 1000 | < 1000 | Cc1cc(C(=O)NC(C)c2cnc(OCC(F)(F)F)c(C)c2)cc(NC(=O)C(C)C)n1 (single isomer, unassigned) [Example 520, 2-isobutyramido-6-methyl-N-(1-(5-methyl-6-(2,2,2-trifluoroethoxy)pyridin-3-yl)ethyl)isonicotinamide] |
| < 1000 | < 1000 | CCC(=O)Nc1cc(C(=O)NC(C)c2cnc(OCC(F)F)c(C)c2)cc(C)n1 (single isomer, unassigned) [Example 554, N-(1-(6-(2,2-difluoroethoxy)-5-methylpyridin-3-yl)ethyl)-2-methyl-6-propionamidoisonicotinamide] |
| < 1000 | < 1000 | Cc1cc(C(C)NC(=O)c2ccnc(NC(=O)C(C)C)c2)cnc1OCC(F)F (single isomer, unassigned) [Example 555, N-(1-(6-(2,2-difluoroethoxy)-5-methylpyridin-3-yl)ethyl)-2-isobutyramidoisonicotinamide] |
| < 1000 | < 1000 | Cc1cc(C(=O)NC(C)c2cnc(OCC(F)F)c(C)c2)cc(NC(=O)C(C)C)n1 (single isomer, unassigned) [Example 557, N-(1-(6-(2,2-difluoroethoxy)-5-methylpyridin-3-yl)ethyl)-2-isobutyramido-6-methylisonicotinamide] |
| < 1000 | < 1000 | Cc1cc(C(C)NC(=O)c2ccnc(NC(=O)C3CC3)n2)cnc1OCC(F)F (single isomer, unassigned) [Example 558, 2-(cyclopropanecarboxamido)-N-(1-(6-(2,2-difluoroethoxy)-5-methylpyridin-3-yl)ethyl)pyrimidine-4-carboxamide] |
| < 1000 | < 1000 | CCC(=O)Nc1cc(C(=O)NC(C)c2ccc(OCC(F)(F)F)c(Cl)c2)cc(C)n1 (single isomer, unassigned) [Example 677, N-(1-(3-chloro-4-(2,2,2-trifluoroethoxy)phenyl)ethyl)-2-methyl-6-propionamidoisonicotinamide] |
| < 1000 | < 1000 | CC(NC(=O)c1ccnc(NC(=O)C2CC2)n1)c1ccc(OCC(F)(F)F)c(Cl)c1 (single isomer, unassigned) [Example 680, N-(1-(3-chloro-4-(2,2,2-trifluoroethoxy)phenyl)ethyl)-2-(cyclopropanecarboxamido)pyrimidine-4-carboxamide] |
| < 1000 | < 1000 | Cc1cc(C(=O)NC(C)c2cnc(OCC(F)(F)F)c(C)c2)cc(NC(=O)C2CC2)n1 (single isomer, unassigned) [Example 823, 2-(cyclopropanecarboxamido)-6-methyl-N-(1-(5-methyl-6-(2,2,2-trifluoroethoxy)pyridin-3-yl)ethyl)isonicotinamide] |
| < 1000 | < 1000 | Cc1cc(C(=O)NC(C)c2cnc(OCC(F)(F)F)c(Cl)c2)cc(NC(=O)C2CC2)n1 (single isomer, unassigned) [Example 832, N-(1-(5-chloro-6-(2,2,2-trifluoroethoxy)pyridin-3-yl)ethyl)-2-(cyclopropanecarboxamido)-6-methylisonicotinamide] |
| < 1000 | < 1000 | Cc1cc(C(C)NC(=O)c2ccnc(NC(=O)C(C)C)c2)cnc1OCC(F)(F)C(F)F (single isomer, unassigned) [Example 904, 2-isobutyramido-N-(1-(5-methyl-6-(2,2,3,3-tetrafluoropropoxy)pyridin-3-yl)ethyl)isonicotinamide] |
| < 1000 | < 1000 | Cc1cc(C(=O)NC(C)c2cnc(OCC(F)(F)C(F)F)c(C)c2)cc(NC(=O)C(C)C)n1 (single isomer, unassigned) [Example 905, 2-isobutyramido-6-methyl-N-(1-(5-methyl-6-(2,2,3,3-tetrafluoropropoxy)pyridin-3-yl)ethyl)isonicotinamide] |
